Assay [1] concerns the target T1, CYP2D6 (Homo sapiens, UniProt P10635).
T1 construct: from tissue; host or cells: human liver microsomes
Briefly: biochemical. Format: in vitro ADME. In outline: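 Human liver microsomes (0.253 mg/mL working stock) pre-incubated with compound and substrate pool at 37° C for 20 min. Reaction started with NADPH and run 10 min at 37° C, stopped with cold ACN. Metabolite analysed by LC-MS/MS; % inhibition and IC50 calculated versus inhibitor-free control.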

In assay [2] the target is T2, CYP3A4 (Homo sapiens, UniProt P08684).
T2 construct: from tissue; host or cells: human liver microsomes
T2 sequence (P08684 whole entry): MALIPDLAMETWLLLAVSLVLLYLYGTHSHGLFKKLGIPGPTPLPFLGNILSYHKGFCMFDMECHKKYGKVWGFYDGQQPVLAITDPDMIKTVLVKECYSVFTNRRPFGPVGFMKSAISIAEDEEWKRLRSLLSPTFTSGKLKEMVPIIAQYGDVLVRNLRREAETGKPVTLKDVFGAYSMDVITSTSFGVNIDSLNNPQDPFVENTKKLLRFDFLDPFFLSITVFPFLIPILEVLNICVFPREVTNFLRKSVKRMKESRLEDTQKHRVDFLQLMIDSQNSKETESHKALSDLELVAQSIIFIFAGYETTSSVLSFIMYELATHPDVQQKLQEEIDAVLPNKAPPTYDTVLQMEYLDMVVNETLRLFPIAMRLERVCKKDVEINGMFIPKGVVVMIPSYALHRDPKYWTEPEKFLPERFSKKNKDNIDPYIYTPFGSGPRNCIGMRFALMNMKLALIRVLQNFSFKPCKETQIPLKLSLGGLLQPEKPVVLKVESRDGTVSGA
Briefly: CYP inhibition assay, human liver microsomes, substrate midazolam. Format: in vitro ADME. The following applies: human liver microsomes, 10 min incubation, LC-MS/MS; read-out: CYP Inhibition Activity (IC50/nM) CYP3A4. The gist of the method:
(§1)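 Human liver microsomes with pooled substrates, test compound or positive inhibitor pre-incubated 20 min at 37° C, then NADPH-started reaction for 10 min at 37° C. Stopped with cold acetonitrile; metabolites quantified by LC-MS/MS, giving % inhibition and IC50.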
A general note: Liver microsomes are a subcellular fraction often used to study metabolism.

Assay [3] addresses T3, CYP2C9 (Homo sapiens, UniProt P11712).
T3 construct: from tissue; host or cells: human liver microsomes
Briefly: CYP inhibition assay, human liver microsomes, substrate diclofenac. The following applies: human liver microsomes, 10 min incubation, LC-MS/MS; read-out: CYP Inhibition Activity (IC50/nM) CYP2C9. Format: in vitro ADME. The gist of the method: as §1

Assay [4] deals with T4, CYP1A2 (Homo sapiens, UniProt P05177).
T4 construct: from tissue; host or cells: human liver microsomes
T4 sequence (P05177 1-516): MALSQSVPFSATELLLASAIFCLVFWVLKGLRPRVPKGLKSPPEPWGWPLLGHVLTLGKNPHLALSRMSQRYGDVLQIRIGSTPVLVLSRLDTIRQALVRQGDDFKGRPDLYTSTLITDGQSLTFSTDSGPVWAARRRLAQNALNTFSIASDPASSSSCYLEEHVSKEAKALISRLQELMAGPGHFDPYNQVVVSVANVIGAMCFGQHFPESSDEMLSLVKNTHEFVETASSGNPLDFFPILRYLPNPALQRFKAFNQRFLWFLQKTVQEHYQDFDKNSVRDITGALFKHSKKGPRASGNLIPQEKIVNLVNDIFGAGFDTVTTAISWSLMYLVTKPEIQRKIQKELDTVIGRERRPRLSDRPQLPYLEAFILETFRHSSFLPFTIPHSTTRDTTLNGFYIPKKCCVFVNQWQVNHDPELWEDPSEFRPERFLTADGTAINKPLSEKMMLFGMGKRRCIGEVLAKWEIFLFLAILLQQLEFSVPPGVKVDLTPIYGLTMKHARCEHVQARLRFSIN
The assay can be described thus: CYP inhibition assay, human liver microsomes, substrate tacrine. The conditions noted are these: human liver microsomes, 10 min incubation, LC-MS/MS; read-out: CYP Inhibition Activity (IC50/nM) CYP1A2. Format: in vitro ADME. In outline: as §1

The target of assay [5] is T5, CYP2C19 (Homo sapiens, UniProt P33261).
T5 construct: from tissue; host or cells: human liver microsomes
T5 sequence (P33261 whole entry): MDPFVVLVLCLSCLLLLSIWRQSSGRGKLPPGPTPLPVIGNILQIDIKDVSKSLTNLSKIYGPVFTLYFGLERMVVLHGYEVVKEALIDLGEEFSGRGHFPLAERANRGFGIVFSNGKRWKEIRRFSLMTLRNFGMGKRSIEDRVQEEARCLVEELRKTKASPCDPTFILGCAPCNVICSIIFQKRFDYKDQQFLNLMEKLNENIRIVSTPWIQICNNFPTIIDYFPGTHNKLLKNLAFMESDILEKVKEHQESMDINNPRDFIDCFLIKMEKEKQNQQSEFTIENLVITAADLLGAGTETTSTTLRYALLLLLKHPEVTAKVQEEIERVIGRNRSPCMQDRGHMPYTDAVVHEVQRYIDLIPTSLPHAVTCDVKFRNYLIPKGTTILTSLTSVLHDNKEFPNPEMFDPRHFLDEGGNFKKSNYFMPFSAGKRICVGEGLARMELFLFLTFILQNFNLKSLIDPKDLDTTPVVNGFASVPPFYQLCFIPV
The assay can be described thus: CYP inhibition assay, human liver microsomes, substrate S-mephenytoin. Format: in vitro ADME. The conditions noted are these: human liver microsomes, 10 min incubation, LC-MS/MS; read-out: CYP Inhibition Activity (IC50/nM) CYP2C19. In outline: as §1

For assay [6], the target named is SRPK1 (Homo sapiens, UniProt Q96SB4). The assay can be described thus: In vitro SRPK1 assay (Kinase-Glo). In kind it is biochemical. On the technique in general: Kinase-Glo measures the ATP left after a reaction by luminescence.
Sequence of SRPK1 (Q96SB4 whole entry, species assumed): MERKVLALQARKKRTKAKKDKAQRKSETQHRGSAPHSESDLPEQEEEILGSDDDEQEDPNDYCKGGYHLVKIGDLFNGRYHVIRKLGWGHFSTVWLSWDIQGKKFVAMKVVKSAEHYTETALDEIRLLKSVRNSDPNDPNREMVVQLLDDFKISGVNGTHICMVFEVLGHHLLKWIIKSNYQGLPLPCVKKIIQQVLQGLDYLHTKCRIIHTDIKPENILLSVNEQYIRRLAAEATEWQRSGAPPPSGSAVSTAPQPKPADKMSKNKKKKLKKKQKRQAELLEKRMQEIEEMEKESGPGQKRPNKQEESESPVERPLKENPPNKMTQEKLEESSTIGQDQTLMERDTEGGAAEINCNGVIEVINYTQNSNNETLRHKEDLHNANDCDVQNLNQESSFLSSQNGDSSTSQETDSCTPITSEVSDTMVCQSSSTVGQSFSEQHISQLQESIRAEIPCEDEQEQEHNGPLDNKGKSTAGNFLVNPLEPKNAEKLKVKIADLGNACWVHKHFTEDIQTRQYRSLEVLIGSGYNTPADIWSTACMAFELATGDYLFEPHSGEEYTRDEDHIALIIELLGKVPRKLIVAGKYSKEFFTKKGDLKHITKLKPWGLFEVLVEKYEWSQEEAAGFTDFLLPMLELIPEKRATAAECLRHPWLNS

pIC50: −log10 of the molar value. Where only a bound is given, the exact number is not on record here.

T1 sequence (P10635 whole entry): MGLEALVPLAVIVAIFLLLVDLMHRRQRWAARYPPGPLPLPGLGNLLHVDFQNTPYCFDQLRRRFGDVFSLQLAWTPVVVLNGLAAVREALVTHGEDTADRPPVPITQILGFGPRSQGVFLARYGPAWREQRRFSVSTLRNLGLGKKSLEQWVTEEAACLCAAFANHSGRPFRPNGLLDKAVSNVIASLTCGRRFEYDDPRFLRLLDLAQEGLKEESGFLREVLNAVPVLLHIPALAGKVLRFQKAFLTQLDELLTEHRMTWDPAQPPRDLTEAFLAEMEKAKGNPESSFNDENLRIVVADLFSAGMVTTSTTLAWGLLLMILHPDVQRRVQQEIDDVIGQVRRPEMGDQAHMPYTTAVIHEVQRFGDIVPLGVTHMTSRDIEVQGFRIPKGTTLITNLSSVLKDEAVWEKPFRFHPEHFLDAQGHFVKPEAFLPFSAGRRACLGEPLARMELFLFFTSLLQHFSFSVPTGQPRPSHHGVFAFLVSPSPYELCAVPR
T3 sequence (P11712 whole entry): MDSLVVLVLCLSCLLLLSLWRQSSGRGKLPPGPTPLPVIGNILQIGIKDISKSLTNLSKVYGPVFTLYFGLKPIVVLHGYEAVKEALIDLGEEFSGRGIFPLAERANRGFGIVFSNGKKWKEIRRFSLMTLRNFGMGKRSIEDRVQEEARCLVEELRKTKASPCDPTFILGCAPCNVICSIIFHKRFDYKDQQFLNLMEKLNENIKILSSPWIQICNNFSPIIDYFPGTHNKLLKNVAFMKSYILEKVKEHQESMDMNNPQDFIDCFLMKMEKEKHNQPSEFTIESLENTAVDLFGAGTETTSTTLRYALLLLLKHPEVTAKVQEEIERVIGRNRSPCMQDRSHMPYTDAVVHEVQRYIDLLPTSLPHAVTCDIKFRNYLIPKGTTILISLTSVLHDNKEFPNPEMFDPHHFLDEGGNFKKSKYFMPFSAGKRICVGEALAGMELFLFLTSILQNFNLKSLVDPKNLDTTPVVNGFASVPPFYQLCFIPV

Broadly, the pIC50 is the negative decadic logarithm of the IC50, by convention in mol/L. Low values mean a high IC50, high ones a low IC50. The compound `CN(C)CC1(C)CCN(c2ccc(C(F)(F)F)cc2NC(=O)c2ccc(-c3ccncc3)o2)CC1` [Example 80, N-(2-(4-((dimethylamino)methyl)-4-methyl-piperidin-1-yl)-5-(trifluoromethyl)phenyl)-5-(pyridin-4-yl)furan-2-carboxamide] showed a pIC50 in assay [1] of 5.98. The IC50 in assay [2] was 3540 nM; in assay [3], 7640 nM; in assay [4], more than 30000 nM; in assay [5], 7340 nM; in assay [6], 42 nM.

Compound `CC1(O)CCN(c2ccc(C(F)(F)F)cc2NC(=O)c2ccccn2)CC1` [Example 1, N-(2-(4-hydroxy-4-methylpiperidin-1-yl)-5-(trifluoromethyl)phenyl)picolinamide] showed a pIC50 in assay [1] of less than 4.52. Also, the IC50 came to 20900 nM in assay [2]; 17800 nM in assay [3]; 15300 nM in assay [4]; 16000 nM in assay [5]; 9 nM in assay [6].

Take `CC1(O)CCN(c2ccc(OC(F)(F)F)cc2NC(=O)c2ccc(C3CCOCC3)o2)CC1` [Example 16, N-(2-(4-hydroxy-4-methylpiperidin-1-yl)-5-(trifluoromethoxy)phenyl)-5-(tetrahydro-2H-pyran-4-yl)furan-2-carboxamide]: in assay [1], the pIC50 is 4.98. In addition, the IC50 in assay [2] was determined as 27300 nM; in assay [3], 5690 nM; in assay [4], 26700 nM; in assay [5], 9550 nM; in assay [6], 16 nM.

With `CC1(O)CCCN(c2ccc(C(F)(F)F)cc2NC(=O)c2ccc(-c3ccncc3)o2)CC1` (racemic) [Example 37, N-(2-(4-hydroxy-4-methylazepan-1-yl)-5-(trifluoromethyl)phenyl)-5-(pyridin-4-yl)furan-2-carboxamide], the pIC50 in assay [1] is 6.62. Also, the IC50 in assay [2] stood at 960 nM; in assay [3] it was 610 nM; in assay [4] it was 24100 nM; in assay [5], 1230 nM; in assay [6] it was 17 nM.

As to `C[C@]1(O)CCN(c2ccc(C(F)(F)F)cc2NC(=O)c2ccc(C3CCOCC3)o2)C1` [Example 51, (S)-N-(2-(3-hydroxy-3-methylpyrrolidin-1-yl)-5-(trifluoromethyl)phenyl)-5-(tetrahydro-2H-pyran-4-yl)furan-2-carboxamide], in assay [1], the pIC50 was less than 4.52. Moreover, the IC50 in assay [2] was more than 30000 nM; in assay [3], more than 30000 nM; in assay [4] it was more than 30000 nM; in assay [5], 20100 nM; in assay [6], 96 nM.

For `CC1(O)CCN(c2ccc(C(F)(F)F)cc2NC(=O)c2ccc(C3CCOCC3)o2)CC1` [Example 11, N-(2-(4-hydroxy-4-methylpiperidin-1-yl)-5-(trifluoromethyl)-phenyl)-5-(tetrahydro-2H-pyran-4-yl)furan-2-carboxamide], the pIC50 in assay [1] was 4.81. The IC50 is 16300 nM in assay [2]; 9310 nM in assay [3]; 17900 nM in assay [4]; 10200 nM in assay [5]; 3 nM in assay [6].

In turn, `CC1(C(N)=O)CCN(c2ccc(C(F)(F)F)cc2NC(=O)c2ccc(-c3ccncc3)o2)CC1` [Example 72, 4-methyl-1-(2-(5-(pyridin-4-yl)furan-2-carboxamido)-4-(trifluoromethyl)phenyl)-piperidine-4-carboxamide] showed a pIC50 in assay [1] of 5.38. In addition, the IC50 in assay [2] was 2370 nM; in assay [3], 2360 nM; in assay [4] it was more than 30000 nM; in assay [5] it was 7540 nM; in assay [6] it was 1.9 nM.

With `CN(C)CC1(C)CCN(c2ccc(Cl)cc2NC(=O)c2ccc(C3CCOCC3)o2)CC1` [Example 91, N-(5-chloro-2-(4-((dimethylamino)methyl)-4-methylpiperidin-1-yl)phenyl)-5-(tetrahydro-2H-pyran-4-yl)furan-2-carboxamide], the negative-log IC50 (pIC50) in assay [1] is 6.70. Besides, the IC50 in assay [2] was 19000 nM; in assay [3], 14900 nM; in assay [4] it was more than 30000 nM; in assay [5], 20800 nM; in assay [6], 41 nM.

Turning to `O=C(Nc1cc(Cl)ccc1N1CCC(O)CC1)c1ccc(C2CCOCC2)o1` [Example 62, N-(5-chloro-2-(4-hydroxypiperidin-1-yl)phenyl)-5-(tetrahydro-2H-pyran-4-yl)furan-2-carboxamide], the pIC50 in assay [1] is 4.61. For the same compound, the IC50 was more than 30000 nM in assay [2]; 11000 nM in assay [3]; more than 30000 nM in assay [4]; 12200 nM in assay [5]; 1.5 nM in assay [6].

Take `C[C@@]1(O)CCN(c2ccc(C(F)(F)F)cc2NC(=O)c2ccc(-c3ccncc3)o2)C1` [Example 52, (R)-N-(2-(3-hydroxy-3-methylpyrrolidin-1-yl)-5-(trifluoromethyl)phenyl)-5-(pyridin-4-yl)furan-2-carboxamide]: in assay [1], the pIC50 is 6.82. The IC50 in assay [2] came out at 1190 nM; in assay [3] it was 200 nM; in assay [4], 4360 nM; in assay [5] it was 540 nM; in assay [6] it was 216 nM.

`CN(C)C(=O)C1(C)CCN(c2ccc(Cl)cc2NC(=O)c2ccc(C3CCOCC3)o2)CC1` [Example 84, 1-(4-chloro-2-(5-(tetrahydro-2H-pyran-4-yl)furan-2-carboxamido)phenyl)-N,N,4-trimethyl-piperidine-4-carboxamide]: in assay [1], the pIC50 is 4.91. For the same compound, the IC50 in assay [2] was 2200 nM; in assay [3], 600 nM; in assay [4], more than 30000 nM; in assay [5], 8000 nM; in assay [6] it was 23 nM.

In the case of `CN(C)C(=O)C1(C)CCN(c2ccc(C(F)(F)F)cc2NC(=O)c2ccc(-c3ccncc3)o2)CC1` [Example 74, N,N,4-trimethyl-1-(2-(5-(pyridin-4-yl)furan-2-carboxamido)-4-(trifluoromethyl)phenyl)-piperidine-4-carboxamide], in assay [1], the negative-log IC50 (pIC50) was 5.81. Further, the IC50 was 720 nM in assay [2]; 1130 nM in assay [3]; more than 30000 nM in assay [4]; 2890 nM in assay [5]; 2.9 nM in assay [6].

For the compound `CN(C)CC1(C)CCN(c2ccc(C3CC3)cc2NC(=O)c2ccc(C3CCOCC3)o2)CC1` [Example 93, N-(5-cyclopropyl-2-(4-((dimethylamino)methyl)-4-methylpiperidin-1-yl)phenyl)-5-(tetrahydro-2H-pyran-4-yl)furan-2-carboxamide], in assay [1], the pIC50 was 4.61. In addition, the IC50 in assay [2] is 29500 nM; in assay [3], 13700 nM; in assay [4], more than 30000 nM; in assay [5], 25700 nM; in assay [6] it was 28 nM.

In assay [1], `O=C(Nc1cc(C(F)(F)F)ccc1N1CCC(O)CC1)c1ccc(-c2ccncc2)o1` [Example 32, N-(2-(4-hydroxypiperidin-1-yl)-5-(trifluoromethyl)-phenyl)-5-(pyridin-4-yl)furan-2-carboxamide] showed a pIC50 of 5.68. Further, the IC50 was 4200 nM in assay [2]; 1500 nM in assay [3]; 2900 nM in assay [4]; 1100 nM in assay [5]; 0.8 nM in assay [6].

`CC1(CO)CCN(c2ccc(Cl)cc2NC(=O)c2ccc(C3CCOCC3)o2)CC1` [Example 68, N-(5-chloro-2-(4-(hydroxymethyl)-4-methyl-piperidin-1-yl)phenyl)-5-(tetrahydro-2H-pyran-4-yl)furan-2-carboxamide] gave a negative logarithm of the IC50 (pIC50) in assay [1] of 4.79. The IC50 in assay [2] is 10900 nM; in assay [3] it was 2800 nM; in assay [4] it was more than 30000 nM; in assay [5], 11400 nM; in assay [6], 1.2 nM.

Compound `CNC(=O)C1(C)CCN(c2ccc(C(F)(F)F)cc2NC(=O)c2ccc(-c3ccncc3)o2)CC1` [Example 73, N,4-dimethyl-1-(2-(5-(pyridin-4-yl)furan-2-carboxamido)-4-(trifluoromethyl)phenyl)-piperidine-4-carboxamide] showed a pIC50 in assay [1] of 5.79. Further, the IC50 in assay [2] is 470 nM; in assay [3], 690 nM; in assay [4] it was more than 30000 nM; in assay [5] it was 1870 nM; in assay [6] it was 5.6 nM.

The values are drawn from US11420969B2 (Exonate Limited, priority 2017, dated 2022).
